{"source": "patent US20110177541A1", "about": "“METHOD FOR ADJUSTING THE COAGULATION TIME IN CALIBRATOR OR CONTROL PLASMAS” (DIAGNOSTICA STAGO, priority 2010, published 2011)", "tested_on": "plasma coagulation time (PT)", "assay": "Prothrombin time (PT) in STA NeoCl+ on treated (defrosted, pooled, excipient-supplemented, filtered) plasma", "assay_type": "biochemical", "description": "The plasma bags were defrosted at 37° C.±2° C. in a defroster; once defrosted, the plasma was stabilized at 37° C.±2° C. for 30 minutes.\nThe bags were then pooled in a stainless steel container and the plasma was then homogenized using a magnetic stirrer.\nThe lyophilization excipients (lactose, saccharose, HEPES buffer) were added, stirring until dissolution was complete.\nA sample was taken to measure the pH, the conductivity and to determine the PT on a STA Neo Cl+ apparatus using STA-R (Diagnostica STAGO).\nThe plasma was filtered on a CRK1 cartridge (Millipore) and a sample was taken to determine the PT in the NeoCl+ after filtration. […]\nA sample of each point was tested in the STA NeoCl+; a range resulting from the addition of different concentrations of F VIIa was produced for each level as a function of the coagulation times obtained.\nFor each point, the concentration of added factor VIIa was determined as a function of the times on a reference graph obtained for fresh plasmas.\nThe F VIIa was then added, and homogenized and a sample of each point was taken in order to measure the pH, the conductivity and to determine the PT in the STA NeoCl+ using STA-R to verify that the desired times were indeed obtained, then each product was distributed and lyophilized.\nIn the table below, a range for procoagulant factor F VIIa has been produced for a range of concentrations of rivaroxaban."}
{"smiles": "O=C(NC[C@H]1CN(c2ccc(N3CCOCC3=O)cc2)C(=O)O1)c1ccc(Cl)s1", "note": "[rivaroxaban]", "values": [{"measurement": "PT divergence of treated plasma with respect to fresh plasma", "setting": "500 ng/mL of rivaroxaban, FIG. 1", "result": 13, "unit": "s"}, {"measurement": "Time in NeoCl+", "setting": "rivaroxaban 25 ng/mL, FVIIa 0 IU/mL", "result": 14.4, "unit": "s"}, {"measurement": "Time in NeoCl+", "setting": "rivaroxaban 25 ng/mL, FVIIa 0.1 IU/mL", "result": 13.7, "unit": "s"}, {"measurement": "Time in NeoCl+", "setting": "rivaroxaban 50 ng/mL, FVIIa 0 IU/mL", "result": 15.3, "unit": "s"}, {"measurement": "Time in NeoCl+", "setting": "rivaroxaban 50 ng/mL, FVIIa 0.2 IU/mL", "result": 14.3, "unit": "s"}, {"measurement": "Time in NeoCl+", "setting": "rivaroxaban 50 ng/mL, FVIIa 0.3 IU/mL", "result": 14.6, "unit": "s"}, {"measurement": "Time in NeoCl+", "setting": "rivaroxaban 50 ng/mL, FVIIa 0.4 IU/mL", "result": 14.6, "unit": "s"}, {"measurement": "Time in NeoCl+", "setting": "rivaroxaban 200 ng/mL, FVIIa 0 IU/mL", "result": 21.2, "unit": "s"}, {"measurement": "Time in NeoCl+", "setting": "rivaroxaban 200 ng/mL, FVIIa 0.1 IU/mL", "result": 19.8, "unit": "s"}, {"measurement": "Time in NeoCl+", "setting": "rivaroxaban 200 ng/mL, FVIIa 0.2 IU/mL", "result": 19, "unit": "s"}, {"measurement": "Time in NeoCl+", "setting": "rivaroxaban 250 ng/mL, FVIIa 0 IU/mL", "result": 23.5, "unit": "s"}, {"measurement": "Time in NeoCl+", "setting": "rivaroxaban 250 ng/mL, FVIIa 0.2 IU/mL", "result": 21, "unit": "s"}, {"measurement": "Time in NeoCl+", "setting": "rivaroxaban 250 ng/mL, FVIIa 0.3 IU/mL", "result": 20.3, "unit": "s"}, {"measurement": "Time in NeoCl+", "setting": "rivaroxaban 250 ng/mL, FVIIa 0.4 IU/mL", "result": 19.9, "unit": "s"}, {"measurement": "Time in NeoCl+", "setting": "rivaroxaban 500 ng/mL, FVIIa 0 IU/mL", "result": 32, "unit": "s"}, {"measurement": "Time in NeoCl+", "setting": "rivaroxaban 500 ng/mL, FVIIa 0.1 IU/mL", "result": 29.9, "unit": "s"}, {"measurement": "Time in NeoCl+", "setting": "rivaroxaban 500 ng/mL, FVIIa 0.2 IU/mL", "result": 28.4, "unit": "s"}, {"measurement": "Time in NeoCl+", "setting": "rivaroxaban 500 ng/mL, FVIIa 0.3 IU/mL", "result": 27.5, "unit": "s"}, {"measurement": "Time in NeoCl+", "setting": "rivaroxaban 500 ng/mL, FVIIa 0.4 IU/mL", "result": 26.8, "unit": "s"}, {"measurement": "Time in NeoCl+", "setting": "rivaroxaban 800 ng/mL, FVIIa 0 IU/mL", "result": 43.5, "unit": "s"}, {"measurement": "Time in NeoCl+", "setting": "rivaroxaban 800 ng/mL, FVIIa 0.2 IU/mL", "result": 38.3, "unit": "s"}, {"measurement": "Time in NeoCl+", "setting": "rivaroxaban 800 ng/mL, FVIIa 0.3 IU/mL", "result": 36.6, "unit": "s"}]}
